Experimental data taken from publication PMC6150198, “Functional Characterization of a Hydroxyacid/Alcohol Hydroxycinnamoyl Transferase Produced by the Liverwort Marchantia emarginata” (Molecules : A Journal of Synthetic Chemistry and Natural …, 2017).

Tested on: T1, MeHFT
T1 construct: ~71 kDa on gel), E. coli BL21(DE3), Ni-NTA; primers encode N-terminus MGAEEV and C-terminus EEAIKL; cDNA 1413 nt from transcriptome SRP078649
Assay: HPLC of alkyl ferulate product, UV […] nm, Michaelis-Menten fit
Format: biochemical, Marchantia emarginata
Details: 0.1 M Tris-HCl pH 7.5, 40 °C, 10 min

Row | Km (acyl donor varied, 0.1 mM 1-decanol) [µM] | Km (acyl acceptor varied, 0.1 mM feruloyl-CoA) [µM] | Structure (SMILES)
1 | 79.4 ± 10.9 |  | COc1cc(/C=C/C(=O)SCCNC(=O)CCNC(=O)[C@H](O)C(C)(C)COP(=O)(O)OP(=O)(O)OC[C@H]2O[C@@H](n3cnc4c(N)ncnc43)[C@H](O)[C@@H]2OP(=O)(O)O)ccc1O [Feruloyl-CoA]
2 |  | 65.5 ± 11.2 | CCCCCCCCCCO [1-Decanol]
